Source: PMC6522930, “Design, synthesis and biological activity evaluation of a new class of 2,4-thiazolidinedione compounds as insulin enhancers” (Journal of Enzyme Inhibition and Medicinal Chemistry, 2019)

Key:
[1] = Dissociation degree (pKa); format: physicochemical
Text: (§1) Drug in vitro experiment was one of the basic contents to evaluate drugs activity, and it was a necessary approach to research drugs. Drugs’ efficacy was often affected by some physical and chemical properties of compounds, such as lipid–water partition coefficient (log p), and dissociation degree (pKa). […] In Table 1, we could find that target compounds were fat-soluble. The fat-soluble compounds were favourable for drugs absorption, and drugs were easy to enter the cells. […] The pKa will affect the absorption and delivery of the drugs, different environmental (acid and alkalinity) medicine may be different, sometimes exists in the form of ions, sometimes exists in the form of molecules. Usually in the form of ion drugs has no effect. Therefore, it was necessary to study the dissociation degree (pKa) of drugs to study the pharmacodynamics. […] After the physical and chemical properties were studied, the biological activity was studied. […] After that, the target compounds 6a, 6e, 6f, 6g and 6i had good biological activity and were preliminarily screened out for further study on PPARγ receptor agonist activity (Figure 5).

PPARγ = biological target: T1, PPARγ (Homo sapiens, UniProt P37231); test: In vitro activation of PPARγ (cells containing PPAR, EC50); format: cell-based; conditions: n ≥ 8; 24 h; read-out: EC50 ± SD PPARγ
T1 construct: expressed in transfected cells
T1 sequence (P37231 1-505): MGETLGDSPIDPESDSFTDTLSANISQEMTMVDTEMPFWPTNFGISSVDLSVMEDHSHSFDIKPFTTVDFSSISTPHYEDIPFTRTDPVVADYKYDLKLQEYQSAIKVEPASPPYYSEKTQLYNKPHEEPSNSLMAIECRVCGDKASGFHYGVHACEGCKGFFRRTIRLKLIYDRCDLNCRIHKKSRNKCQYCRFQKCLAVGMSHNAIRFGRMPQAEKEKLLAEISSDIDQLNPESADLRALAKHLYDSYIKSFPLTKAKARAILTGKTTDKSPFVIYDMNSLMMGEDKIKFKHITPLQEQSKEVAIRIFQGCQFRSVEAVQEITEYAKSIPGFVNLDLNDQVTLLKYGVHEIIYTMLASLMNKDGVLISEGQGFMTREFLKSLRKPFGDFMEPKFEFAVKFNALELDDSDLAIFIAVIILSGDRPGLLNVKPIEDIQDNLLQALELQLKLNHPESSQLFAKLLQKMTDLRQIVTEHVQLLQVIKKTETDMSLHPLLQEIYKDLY
Protocol: (§2) According to the literature, the cells containing PPAR (α, β and γ) were obtained and transfected into 96-well plates the day before for cells culture. Transfection was performed according to the instructions of human PPAR enzyme-linked immunoassay. […] After 24 h, the drugs were added, and 20 μl of MTT was added to each well for another 6 h, and the cell liquid was collected by removing the culture medium, and 150 μl of DMSO was added to each hole. And the absorbance value (A) of each hole was measured under the wavelength of 460 nm.

[2] = Lipid–water partition coefficient (log p); format: physicochemical
Text: as §1

PPARα = biological target: T2, PPARα (Homo sapiens, UniProt Q07869); test: In vitro activation of PPARα (cells containing PPAR, EC50); format: cell-based; conditions: n ≥ 8; 24 h; read-out: EC50 ± SD PPARα
T2 construct: expressed in transfected cells
T2 sequence (Q07869 1-468): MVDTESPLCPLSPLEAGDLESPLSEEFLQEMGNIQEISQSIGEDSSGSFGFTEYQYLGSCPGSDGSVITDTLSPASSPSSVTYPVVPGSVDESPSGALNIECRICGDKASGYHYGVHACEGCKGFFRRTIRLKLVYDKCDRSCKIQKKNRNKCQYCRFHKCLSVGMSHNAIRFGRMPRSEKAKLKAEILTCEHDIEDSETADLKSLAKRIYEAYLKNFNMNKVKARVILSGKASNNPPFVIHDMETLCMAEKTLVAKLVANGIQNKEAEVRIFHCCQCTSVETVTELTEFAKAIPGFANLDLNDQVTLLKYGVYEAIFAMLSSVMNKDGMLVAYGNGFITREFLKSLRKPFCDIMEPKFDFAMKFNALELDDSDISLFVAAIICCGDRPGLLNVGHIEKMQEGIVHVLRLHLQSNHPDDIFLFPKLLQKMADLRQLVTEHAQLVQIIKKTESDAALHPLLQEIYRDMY
Protocol: as §2

healthy mice [3] = test: Oral glucose tolerance test; format: in vivo; conditions: for Blood glucose levels 1 h / Blood glucose levels 2 h / Blood glucose levels 0 h: 10 mg kg^−1 d^−1 oral for 10 d; for Blood glucose levels 1 h: 1 h after sugar load; for Blood glucose levels 2 h: 2 h after sugar load; for Blood glucose levels 0 h: fasted 12 h, before sugar load; for Effect in glucose tolerance test (in words): 10 mg kg^−1 d^−1 oral, 10 d
Protocol: In vivo experiments, glucose tolerance test, insulin tolerance test, cell survival experiment and acute toxicity were used as the test indicators (Tables 2, [3] and [4]). In Table 2, we chose dose 10 mg kg^−1 d^−1 and used oral administration. […] The mice were given the drug for 10 d, blood was collected from the tail vein of the mice before and after the sugar load for 1 h and 2 h, and the blood glucose level of the mice before and after the sugar load was measured by the glucometer.
(§3) (1) Glucose tolerance test: The healthy mice (20 ± 2 g) were selected. After 1 week of acclimation, mice with no body surface damage, good general condition and flexible reaction were selected for the experiment. The test compounds were dissolved with DMSO, and were given a dose volume of 0.2 ml 10 g^−1, and a dose of 10 mg kg^−1, and given by gavage (oral) once a day. […] The mice were given the drug for 10 d, and after the last dose, the mice fasted for 12 h. The next day, blood was collected from the tail vein of the mice before and after the sugar load for 1 h and 2 h, and the blood glucose level of the mice before and after the sugar load was measured by the glucometer. […] The 12 h of fasting after the last administration, blood was taken from the orbital venous plexus (used to measure the blood glucose level after fasting). Each group was immediately given a subcutaneous injection of 0.2 μg kg^−1 of insulin. After 1 h and 2 h of injection, blood was taken again. (3) Cell survival experiment: The HUVEC cells were inoculated on the 96-well plate at the initial concentration of 3 × 10^3 cells/holes, and 100 μl RPMI 1640 medium were added to each hole. At 5% CO2 and 37 °C cell cultivation in 24 h, every pore solution in different concentrations. […] And determine the hole under 460 nm wavelength absorbance value (A).

[4] = Acute toxicity test (LD50); format: in vivo; conditions: oral administration; n ≥ 3
HUVEC cells = test: Cell survival experiment (cytotoxicity); format: cell-based; conditions: for Cytotoxic effect (in words): 10^−3–10^−2 mol L^−1; for Cell survival rate: HUVEC cells
Protocol: as §3

healthy mice [5] = test: Insulin tolerance test (blood glucose under insulin load); format: in vivo; conditions: for Effect in insulin tolerance test (in words): 10 mg kg^−1 d^−1; for Blood glucose levels 1 h / Blood glucose levels 2 h / Blood glucose levels 0 h: 10 mg kg^−1 d^−1 for 15 d; for Blood glucose levels 1 h: 1 h after s.c. insulin 0.2 μg kg^−1; for Blood glucose levels 2 h: 2 h after s.c. insulin 0.2 μg kg^−1; for Blood glucose levels 0 h: fasted 12 h, before insulin
Protocol: as §3

Row | Compound | pKa [1] | EC50 (PPARγ) [nM] | logP [2] | EC50 (PPARα) [nM] | Blood glucose levels 1 h (healthy mice [3]) [mmol/L] | Blood glucose levels 2 h (healthy mice [3]) [mmol/L] | Blood glucose levels 0 h (healthy mice [3]) [mmol/L] | Effect in glucose tolerance test (in words) (healthy mice [3]) | LD50 ± SD [4] [mg/kg] | Cytotoxic effect (in words) (HUVEC cells) | Cell survival rate (HUVEC cells; 10^−2 mol l^−1) [%] | Cell survival rate (HUVEC cells; 10^−3 mol l^−1) [%] | Cell survival rate (HUVEC cells; 10^−4 mol l^−1) [%] | Cell survival rate (HUVEC cells; 10^−5 mol l^−1) [%] | Cell survival rate (HUVEC cells; 10^−6 mol l^−1) [%] | Effect in insulin tolerance test (in words) (healthy mice [5]) | Blood glucose levels 1 h (healthy mice [5]) [mmol/L] | Blood glucose levels 2 h (healthy mice [5]) [mmol/L] | Blood glucose levels 0 h (healthy mice [5]) [mmol/L]
1 | Cc1ccc(C(=O)NCCOc2ccc(CC3SC(=O)NC3=O)nc2)nc1 (stereo not drawn) [Compound 6h, N-(2-((6-((2,4-dioxothiazolidin-5-yl)methyl)pyridin-3-yl)oxy)ethyl)-5-methylpicolinamide] | 9.41 | 280 ± 130 | 2.01 | 10600 ± 1860 |  |  |  |  |  |  |  |  |  |  |  |  |  |  | 
2 | O=C1NC(=O)C(Cc2ccc(OCCNC(=O)c3ccccn3)cc2)S1 (stereo not drawn) [Compound 6c, N-(2-(4-((2,4-dioxothiazolidin-5-yl)methyl)phenoxy)ethyl) picolinamide] | 10 | 450 ± 210 | 1.92 | 13000 ± 1560 |  |  |  |  |  |  |  |  |  |  |  |  |  |  | 
3 | O=C1NC(=O)C(Cc2ccc(OCCNC(=O)c3ccc(O)cn3)cc2)S1 (stereo not drawn) [Compound 6k, N-(2-(4-((2,4-dioxothiazolidin-5-yl)methyl)phenoxy)ethyl)-5-hydroxypicolinamide] | 8.66 | 210 ± 110 | 2.32 |  |  |  |  |  |  |  |  |  |  |  |  |  |  |  | 
4 | O=C1NC(=O)C(Cc2ccc(OCCNC(=O)c3ccc(O)cc3)cc2)S1 (stereo not drawn) [Compound 6i, N-(2-(4-((2,4-dioxothiazolidin-5-yl)methyl)phenoxy)ethyl)-4-hydroxybenzamide] | 9.03 | 70 ± 20 | 2.8 |  | 6.401 ± 2.112 | 3.265 ± 1.236 | 3.218 ± 0.317 | good resistance activation to glucose | 2268.9 ± 1.25 | no obvious cytotoxic effect | 92.1 ± 1.43 | 98.8 ± 0.29 | 99.9 ± 0.02 | 100 | 100 | good resistance activation to insulin | 1.792 ± 0.541 | 2.501 ± 1.025 | 5.592 ± 1.134
5 | CN(CCOc1ccc(CC2SC(=O)NC2=O)cc1)c1ccccn1 (stereo not drawn) [Rosiglitazone, reference compound] |  |  |  |  | 6.351 ± 2.004 | 3.654 ± 1.232 | 3.265 ± 0.345 |  | 2246.1 ± 1.56 |  |  |  |  |  |  |  |  |  | 
6 | Cc1ccc(C(=O)NCCOc2ccc(CC3SC(=O)NC3=O)cc2)nc1 (stereo not drawn) [Compound 6g, N-(2-(4-((2,4-dioxothiazolidin-5-yl)methyl)phenoxy)ethyl)-5-methylpicolinamide] | 9.45 | 80 ± 30 | 2.83 |  | 6.445 ± 2.220 | 3.677 ± 1.730 | 3.112 ± 0.279 | good resistance activation to glucose | 2138.8 ± 1.36 | no obvious cytotoxic effect | 90.5 ± 1.54 | 98.6 ± 0.44 | 99.8 ± 0.09 | 100 | 100 | good resistance activation to insulin | 1.843 ± 0.544 | 2.566 ± 1.224 | 5.613 ± 1.246
7 | Cc1ccc(C(=O)NCCOc2ccc(CC3SC(=O)NC3=O)nc2)cc1 (stereo not drawn) [Compound 6f, N-(2-((6-((2,4-dioxothiazolidin-5-yl)methyl)pyridin-3-yl)oxy)ethyl)-4-methylbenzamide] | 9.65 | 100 ± 100 | 2.56 |  | 6.651 ± 2.413 | 4.121 ± 1.922 | 3.216 ± 0.315 | good resistance activation to glucose | 2013.6 ± 1.43 | no obvious cytotoxic effect | 89.6 ± 1.34 | 98.3 ± 0.45 | 99.2 ± 0.31 | 99.8 ± 0.09 | 100 | good resistance activation to insulin | 1.903 ± 0.611 | 2.602 ± 1.143 | 5.714 ± 1.465
8 | Cc1ccc(C(=O)NCCOc2ccc(CC3SC(=O)NC3=O)cc2)cc1 (stereo not drawn) [Compound 6e, N-(2-(4-((2,4-dioxothiazolidin-5-yl)methyl)phenoxy)ethyl)-4-methylbenzamide] | 9.77 | 30 ± 10 | 3.26 |  | 6.003 ± 1.876 | 2.953 ± 0.876 | 3.312 ± 0.301 | good resistance activation to glucose | 2451.2 ± 1.24 | no obvious cytotoxic effect | 94.3 ± 1.02 | 99.1 ± 0.08 | 100 | 100 | 100 | good resistance activation to insulin | 1.762 ± 0.453 | 2.463 ± 1.211 | 5.411 ± 1.002
